These results are taken from patent US20260083761A1, “PHARMACEUTICAL COMPOSITION FOR TREATING BRAIN DISEASE, NEURONAL MIGRATION PROMOTER, AND USE THEREOF” (PUBLIC UNIVERSITY CORPORATION NAGOYA CITY UNIVERSITY, priority 2022, published 2026).

Each structure is given as a SMILES string.

In assay [1] the test system is V-SVZ-derived new neurons co-cultured with BV2 cells. Nature of the assay: Experiment 10: co-culture of V-SVZ-derived new neurons with LPS-stimulated BV2 cells; PSA signal and time-lapse imaging. It counts as cell-based, mouse. The note with it: inhibitor final concentration 1 mM, vs PBS (LPS+) and control (LPS−).
The next assay concerns the target T1, Neu3 (Homo sapiens, UniProt Q9UQ49).
T1 sequence (Q9UQ49 1-461 isoform Q9UQ49-2): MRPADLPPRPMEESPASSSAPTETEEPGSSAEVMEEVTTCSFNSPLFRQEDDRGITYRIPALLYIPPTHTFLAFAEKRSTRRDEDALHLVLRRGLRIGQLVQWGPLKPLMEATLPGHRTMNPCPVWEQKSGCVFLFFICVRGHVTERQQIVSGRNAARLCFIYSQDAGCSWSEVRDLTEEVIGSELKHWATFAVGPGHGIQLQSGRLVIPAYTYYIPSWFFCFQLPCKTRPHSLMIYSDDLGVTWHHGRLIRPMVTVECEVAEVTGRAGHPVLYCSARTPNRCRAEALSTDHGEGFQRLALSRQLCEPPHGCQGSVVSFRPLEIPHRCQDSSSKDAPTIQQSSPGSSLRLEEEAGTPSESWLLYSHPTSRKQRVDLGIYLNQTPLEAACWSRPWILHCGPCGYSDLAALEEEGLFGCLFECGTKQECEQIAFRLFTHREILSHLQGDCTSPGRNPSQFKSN
The note with it: human neuraminidases; reported; cited from earlier work.

For a further assay, the system named is V-SVZ-derived neurons. Nature of the assay: Experiment 12: Zanamivir in Nestin-CreERT2;NSE-DTA mice with new neurons removed; FFT and double-positive cells. The assay is classed as in vivo, mouse. The note with it: Nestin-CreERT2;NSE-DTA group, unlike NSE-DTA group; Zanamivir 50 mg/kg i.p. for 14 days from day 7 after injury; FFT 14 days after end of administration.

A further assay deals with T2, Neu4 (Homo sapiens, UniProt Q8WWR8).
T2 sequence (Q8WWR8 1-496 isoform Q8WWR8-2): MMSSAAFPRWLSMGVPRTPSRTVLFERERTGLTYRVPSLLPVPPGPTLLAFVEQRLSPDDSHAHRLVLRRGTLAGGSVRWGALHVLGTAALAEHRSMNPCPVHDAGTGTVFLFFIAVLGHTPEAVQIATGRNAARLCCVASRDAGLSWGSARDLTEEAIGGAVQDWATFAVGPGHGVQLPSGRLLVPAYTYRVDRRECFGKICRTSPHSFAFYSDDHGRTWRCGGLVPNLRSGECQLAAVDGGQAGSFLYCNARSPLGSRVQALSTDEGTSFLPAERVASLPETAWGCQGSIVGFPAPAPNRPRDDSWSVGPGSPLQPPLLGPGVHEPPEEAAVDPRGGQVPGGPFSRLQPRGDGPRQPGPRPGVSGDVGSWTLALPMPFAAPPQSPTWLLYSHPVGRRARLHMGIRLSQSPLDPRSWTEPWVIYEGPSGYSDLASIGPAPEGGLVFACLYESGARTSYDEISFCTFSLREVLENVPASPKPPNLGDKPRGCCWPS
The note with it: human neuraminidases; reported; cited from earlier work.

The subject of assay [2] is new neurons migrating to the brain injury site. Nature of the assay: Experiment 13: Zanamivir in common marmosets with brain injury; PSA-NCAM and Dcx immunostaining. Particulars: common marmoset, 50 mg/kg i.p. for 21 days from day 7 after injury, fixed 28 days after injury. The assay is classed as in vivo, common marmoset (Callithrix jacchus).

Regarding `CC(=O)N[C@H]1[C@H]([C@H](O)[C@H](O)CO)OC(C(=O)O)=C[C@@H]1O` [DANA, 2,3-dehydro-2-deoxy-N-acetylneuraminic acid], in assay [1], the PSA signal intensity entry is “maintained”.
With `CC(=O)N[C@H]1[C@H]([C@H](O)[C@H](O)CO)OC(C(=O)O)=C[C@@H]1N=C(N)N` [Zanamivir], the PSA signal intensity result in assay [1] is “maintained”. The “inhibitory effect on human Neu3” value on Neu3 is recorded as “inhibitory effect has been reported”. Moreover, in the assay with V-SVZ-derived neurons, the “left-side slipping-off rate in the FFT” value is reported as “no improvement”. The “inhibitory effect on human Neu4” value on Neu4 is listed as “inhibitory effect has been reported”. Further, the “localization of new neurons (distance of Dcx-positive cells from the injury site)” value in assay [2] (vs control) is given as “localized closer to the injury site”. The “PSA signal intensity of new neurons localized in the striatum on the injury side” value in assay [2] (vs non-administration control) was “maintain”.
